17 compounds from patent publication US20100204203A1, “Chemical Compounds 637: Pyridopyrimidinediones as PDE4 Inhibitors” (priority 2007, published 2010) can be followed below.

Structures can show the parent of a compound that is named as a salt.

recombinant Human Phosphodiesterase B2 (PDE4B2), sequence (Q07343 1-564 isoform Q07343-2): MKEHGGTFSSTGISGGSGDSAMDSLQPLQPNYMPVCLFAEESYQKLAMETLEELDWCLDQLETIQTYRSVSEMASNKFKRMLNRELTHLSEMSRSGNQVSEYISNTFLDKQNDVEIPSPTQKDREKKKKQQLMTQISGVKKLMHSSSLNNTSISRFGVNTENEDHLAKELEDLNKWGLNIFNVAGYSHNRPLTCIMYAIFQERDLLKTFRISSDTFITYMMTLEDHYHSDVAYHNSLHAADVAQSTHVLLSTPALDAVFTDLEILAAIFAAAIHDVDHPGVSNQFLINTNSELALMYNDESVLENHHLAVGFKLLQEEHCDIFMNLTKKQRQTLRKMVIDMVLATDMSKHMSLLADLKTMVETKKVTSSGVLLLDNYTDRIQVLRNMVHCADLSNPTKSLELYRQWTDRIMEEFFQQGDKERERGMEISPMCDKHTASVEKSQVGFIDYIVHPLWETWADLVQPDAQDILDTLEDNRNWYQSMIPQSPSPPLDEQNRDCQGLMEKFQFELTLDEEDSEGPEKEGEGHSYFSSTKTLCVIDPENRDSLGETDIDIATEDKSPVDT

The target in this assay is recombinant Human Phosphodiesterase B2 (PDE4B2) (Homo sapiens, UniProt Q07343). The assay can be described thus: Human Phosphodiesterase B2 Radiometric Assay (yttrium silicate SPA beads, [3H]cyclic AMP). Type of assay: biochemical. The note with it: recombinant human PDE4B2, radiometric SPA assay, 8 nM [3H]cyclic AMP; read-out: PDE4B2 pIC50 (converted). Summed up:
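Read-out is scintillation proximity: yttrium silicate beads (with 18 mM ZnSO4, added to stop the reaction) bind 5′AMP formed from 8 nM [3H]cAMP over 20 min. Beforehand, compound and 0.1 mg/mL enzyme were preincubated 30 min at 30 °C in pH 7.5 HEPES buffer with MgCl2, EGTA and Brij 35; pIC50 values were curve-fitted.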
In the case of `CC(C)N1CCN(Cc2ccc(-c3cccc(-n4c(=O)n([C@H]5CC[C@@H](NC(=O)C6CCCC6)CC5)c(=O)c5cc(F)cnc54)c3)cc2)CC1` [Example 236, N-{cis-4-[6-fluoro-1-{4′-[(4-isopropylpiperazin-1-yl)methyl]biphenyl-3-yl}-2,4-dioxo-1,4-di-hydropyrido[2,3-d]pyrimidin-3(2H)-yl]cyclohexyl}cyclo-pentanecarboxamide], the IC50 was 0.126 nM. For the compound `CN(Cc1cc(O)ccc1-c1cccc(-n2c(=O)n([C@H]3CC[C@@H](NCc4cn5cc(F)ccc5n4)CC3)c(=O)c3cc(F)cnc32)c1)CC1CC1` [Example 325], the IC50 is 2 nM.

In the case of `O=C(N[C@H]1CC[C@@H](n2c(=O)c3cc(F)cnc3n(-c3cccc(-c4ccc(CN5CCN(CCO)CC5)cc4)c3)c2=O)CC1)c1cn2c(n1)CCCC2` [Example 120, N-{cis-4-[6-fluoro-1-(4′-{[4-(2-hydroxyethyl)piperazin-1-yl]methyl}biphenyl-3-yl)-2,4-dioxo-1,4-dihydropyrido[2,3-d]pyrimidin-3(2H)-yl]cyclohexyl}-5,6,7,8-tetrahydroimidazo[1,2-a]pyridine-2-carboxamide], the IC50 is 0.0316 nM. The same measure for `O=c1c2cc(F)cnc2n(-c2cccc(-c3ccc(O)cc3CN3CCOCC3)c2)c(=O)n1[C@H]1CC[C@@H](NCCCc2ccccc2)CC1` [Example 248, 6-Fluoro-1-[4′-hydroxy-2′-(morpholin-4-ylmethyl)biphenyl-3-yl]-3-{cis-4-[(3-phenylpropyl)amino]cyclohexyl}pyrido[2,3-d]pyrimidine-2,4(1H,3H)-dione]: 1.26 nM. The same measure for `O=c1c2cc(F)cnc2n(-c2cccc(-c3ccc(O)cc3CN3CCOCC3)c2)c(=O)n1[C@H]1CC[C@@H](NCc2cccn3ccnc23)CC1` [Example 373, 6-fluoro-1-[4′-hydroxy-2′-(morpholin-4-ylmethyl)biphenyl-3-yl]-3-{cis-4-[(imidazo[1,2-a]pyridin-8-ylmethyl)amino]cyclohexyl} pyrido[2,3-d]pyrimidine-2,4(1H,3H)-dione]: 0.158 nM; for `Cc1cccc(C(=O)N[C@H]2CC[C@@H](n3c(=O)c4cc(F)cnc4n(-c4cccc(-c5ccc(CN6CCCN(C)CC6)cc5)c4)c3=O)CC2)n1` [Example 308, N-{cis-4-[6-fluoro-1-{4′-[(4-methyl-1,4-diazepan-1-yl)methyl]biphenyl-3-yl}-2,4-dioxo-1,4-dihydropyrido[2,3-d]pyrimidin-3 (2H)-yl]cyclohexyl}-6-methylpyridine-2-carboxamide]: 0.0631 nM; for `CNC1CCN(Cc2cc(O)ccc2-c2cccc(-n3c(=O)n([C@H]4CC[C@@H](NC(=O)c5cn6cc(F)ccc6n5)CC4)c(=O)c4cc(F)cnc43)c2)CC1` [Example 73, 6-fluoro-N-{cis-4-[6-fluoro-1-(4′-hydroxy-2′-{[4-(methylamino)piperidin-1-yl]methyl}biphenyl-3-yl)-2,4-dioxo-1,4-dihydropyrido[2,3-d]pyrimidin-3(2H)-yl]cyclohexyl}imidazo[1,2-a]pyridine-2-carboxamide trifluoroacetate salt]: 0.0251 nM. To `Cc1ccc(CN[C@H]2CC[C@@H](n3c(=O)c4cc(F)cnc4n(-c4cccc(-c5ccc(O)cc5CN5CCOCC5)c4)c3=O)CC2)cc1` [Example 278, 6-fluoro-1-[4′-hydroxy-2′-(morpholin-4-ylmethyl)biphenyl-3-yl]-3-{cis-4-[(4-methylbenzyl)amino]cyclohexyl}pyrido[2,3-d] pyrimidine-2,4(1H,3H)-dione] belongs 0.794 nM; to `O=C(N[C@H]1CC[C@@H](n2c(=O)c3cc(F)cnc3n(-c3cccc(-c4ccc(CN5CCCNCC5)cc4)c3)c2=O)CC1)c1ccc2ccccc2n1` [Example 350, N-{cis-4-[1-[4′-(1,4-diazepan-1-ylmethyl)biphenyl-3-yl]-6-fluoro-2,4-dioxo-1,4-dihydropyrido[2,3-d]pyrimidin-3(2H)-yl]cyclohexyl} quinoline-2-carboxamide], 0.0158 nM; to `CC(C)N1CCN(Cc2ccc(-c3cccc(-n4c(=O)n([C@H]5CC[C@@H](NC(=O)CN6CCCCC6)CC5)c(=O)c5cc(F)cnc54)c3)cc2)CC1` [Example 237, N-{cis-4-[6-fluoro-1-{4′-[(4-isopropylpiperazin-1-yl)methyl]biphenyl-3-yl}-2,4-dioxo-1,4-di-hydropyrido[2,3-d]pyrimidin-3(2H)-yl]cyclohexyl}-2-piperidin-1-ylacetamide], 0.0398 nM.

As to `Cc1ccc2nc(CN[C@H]3CC[C@@H](n4c(=O)c5cc(F)cnc5n(-c5cccc(-c6ccc(O)cc6CN6CCOCC6)c5)c4=O)CC3)cn2c1` [Example 334, 6-fluoro-1-[4′-hydroxy-2′-(morpholin-4-ylmethyl)biphenyl-3-yl]-3-(cis-4-{[(6-methylimidazo[1,2-a]pyridin-2-yl)methyl]amino}cyclohexyl)pyrido[2,3-d]pyrimidine-2,4 (1H,3H)-dione], the IC50 is 0.0631 nM.

For the compound `Cc1cc(-c2ccc(CN3CCNCC3)cc2)cc(-n2c(=O)n([C@H]3CC[C@@H](NC(=O)c4cn5cc(F)ccc5n4)CC3)c(=O)c3cc(F)cnc32)c1` [Example 230, 6-Fluoro-N-{cis-4-[6-fluoro-1-[5-methyl-4′-(piperazin-1-ylmethyl)biphenyl-3-yl]-2,4-dioxo-1,4-dihydropyrido[2,3-d]pyrimidin-3 (2H)-yl]cyclohexyl}imidazo[1,2-a]pyridine-2-carboxamide], the IC50 is 0.0316 nM. The same measure for `CN1CCCC1c1ccc2nc(C(=O)N[C@H]3CC[C@@H](n4c(=O)c5cc(F)cnc5n(-c5cccc(-c6ccccc6)c5)c4=O)CC3)cn2c1` (stereo partly drawn) [Example 2, N-[cis-4-(1-biphenyl-3-yl-6-fluoro-2,4-dioxo-1,4-dihydropyrido[2,3-d]pyrimidin-3(2H)-yl)cyclohexyl]-6-(1-methylpyrrolidin-2-yl)imidazo[1,2-a]pyridine-2-carboxamide]: 0.158 nM; for `O=C(N[C@H]1CC[C@@H](n2c(=O)c3cc(F)cnc3n(-c3cccc(-c4ccc(CN5CC[C@@H](O)C5)cc4)c3)c2=O)CC1)c1cn2cc(F)ccc2n1` [Example 56, 6-fluoro-N-{cis-4-[6-fluoro-1-(4′-{[(3R)-3-hydroxypyrrolidin-1-yl]methyl}biphenyl-3-yl)-2,4-dioxo-1,4-dihydropyrido[2,3-d]pyrimidin-3(2H)-yl]cyclohexyl}imidazo[1,2-a]pyridine-2-carboxamide]: 0.0251 nM.

For the compound `O=C(N[C@H]1CC[C@@H](n2c(=O)c3cc(F)cnc3n(-c3cccc(-c4ccc(CCCO)cc4)c3)c2=O)CC1)c1cn2cc(F)ccc2n1` [Example 20, 6-fluoro-N-{cis-4-[6-fluoro-1-[4′-(3-hydroxypropyl)biphenyl-3-yl]-2,4-dioxo-1,4-dihydropyrido[2,3-d]pyrimidin-3(2H)-yl]cyclohexyl}imidazo[1,2-a]pyridine-2-carboxamide.], the IC50 is 0.02 nM. The same measure for `CCCN1CCN(Cc2ccc(-c3cccc(-n4c(=O)n([C@H]5CC[C@@H](NC(=O)c6cn7c(n6)CCCC7)CC5)c(=O)c5cc(F)cnc54)c3)cc2)CC1` [Example 227, N-{cis-4-[6-fluoro-2,4-dioxo-1-{4′-[(4-propylpiperazin-1-yl)methyl]biphenyl-3-yl}-1,4-dihydropyrido[2,3-d]pyrimidin-3(2H)-yl]cyclohexyl}-5,6,7,8-tetrahydroimidazo[1,2-a]pyridine-2-carboxamide]: 0.00794 nM; for `CC(C)(C)OC(=O)N[C@H]1CC[C@@H](n2c(=O)c3cc(F)cnc3n(-c3cccc(-c4ccccc4CN4CCOCC4)c3)c2=O)CC1` [Example 45]: 0.316 nM.
